In article PMC6540285, “Evaluation of Protein Kinase Inhibitors with PLK4 Cross-Over Potential in a Pre-Clinical Model of Cancer” (International Journal of Molecular Sciences, 2019):

Assays:
ALK T1151_L1152insT = ALK T1151_L1152insT (Homo sapiens, UniProt Q9UM73, INS1151T); experiment: SelectScreen kinase profiling, LanthaScreen binding
AURKA (Aurora A) = AURKA (Aurora A) (Homo sapiens, UniProt O14965); experiment: SelectScreen kinase profiling, ZLYTE; assay type: biochemical
AURKB (Aurora B) = AURKB (Aurora B) (Homo sapiens, UniProt Q96GD4); experiment: SelectScreen kinase profiling, ZLYTE; assay type: biochemical
AURKC (Aurora C) = AURKC (Aurora C) (Homo sapiens, UniProt Q9UQB9); experiment: SelectScreen kinase profiling, ZLYTE; assay type: biochemical
CAMKK1 (CAMKKA) = CAMKK1 (CAMKKA) (Homo sapiens, UniProt Q8N5S9); experiment: SelectScreen kinase profiling, LanthaScreen binding
CDK7/cyclin H/MNAT1 = CDK7/cyclin H/MNAT1 (Homo sapiens, UniProt P50613); experiment: SelectScreen kinase profiling, Adapta; assay type: biochemical; conditions: CDK7/cyclin H/MNAT1, 10 µM
EPHA3 = EPHA3 (Homo sapiens, UniProt P29320); experiment: SelectScreen kinase profiling, LanthaScreen binding; conditions: EPHA3, 10 µM
EPHA5 = EPHA5 (Homo sapiens, UniProt P54756); experiment: SelectScreen kinase profiling, ZLYTE; assay type: biochemical; conditions: EPHA5, 10 µM
EPHA5, sequence (P54756 25-1037): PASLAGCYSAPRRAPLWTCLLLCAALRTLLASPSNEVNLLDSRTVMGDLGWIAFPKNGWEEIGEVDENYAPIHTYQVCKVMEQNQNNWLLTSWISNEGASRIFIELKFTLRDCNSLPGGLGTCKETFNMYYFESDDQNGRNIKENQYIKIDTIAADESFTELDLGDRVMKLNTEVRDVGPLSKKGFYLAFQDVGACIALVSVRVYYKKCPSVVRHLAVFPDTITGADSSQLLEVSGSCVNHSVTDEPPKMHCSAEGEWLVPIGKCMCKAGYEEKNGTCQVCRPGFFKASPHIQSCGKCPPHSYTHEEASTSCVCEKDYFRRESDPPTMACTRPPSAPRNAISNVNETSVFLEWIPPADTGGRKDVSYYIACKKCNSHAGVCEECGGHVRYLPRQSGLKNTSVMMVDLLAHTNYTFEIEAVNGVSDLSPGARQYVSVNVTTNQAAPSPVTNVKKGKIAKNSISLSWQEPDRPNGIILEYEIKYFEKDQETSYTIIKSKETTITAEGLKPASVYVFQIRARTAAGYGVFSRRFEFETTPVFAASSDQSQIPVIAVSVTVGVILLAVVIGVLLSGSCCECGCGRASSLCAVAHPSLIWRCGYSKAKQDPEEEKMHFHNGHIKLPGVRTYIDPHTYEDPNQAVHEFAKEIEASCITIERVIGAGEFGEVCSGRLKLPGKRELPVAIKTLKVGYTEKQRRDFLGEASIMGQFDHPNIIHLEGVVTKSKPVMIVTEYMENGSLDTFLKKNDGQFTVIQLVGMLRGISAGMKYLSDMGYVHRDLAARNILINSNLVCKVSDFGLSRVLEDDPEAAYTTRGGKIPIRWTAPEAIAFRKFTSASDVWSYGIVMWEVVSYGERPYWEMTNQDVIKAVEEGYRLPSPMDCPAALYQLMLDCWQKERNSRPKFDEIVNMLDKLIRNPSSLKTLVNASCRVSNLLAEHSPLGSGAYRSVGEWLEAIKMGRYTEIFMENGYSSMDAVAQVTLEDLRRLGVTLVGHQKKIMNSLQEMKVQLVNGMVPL

EPHB2 = EPHB2 (Homo sapiens, UniProt P29323); experiment: SelectScreen kinase profiling, ZLYTE; assay type: biochemical; conditions: EPHB2, 10 µM
FGFR2 = FGFR2 (Homo sapiens, UniProt P21802); experiment: SelectScreen kinase profiling, ZLYTE; assay type: biochemical; conditions: FGFR2, 10 µM
FGFR3 = FGFR3 (Homo sapiens, UniProt P22607); experiment: SelectScreen kinase profiling, ZLYTE; assay type: biochemical; conditions: FGFR3, 10 µM
FRK (PTK5) = FRK (PTK5) (Homo sapiens, UniProt P42685); experiment: SelectScreen kinase profiling, ZLYTE; assay type: biochemical
FRK (PTK5), sequence (P42685 whole entry): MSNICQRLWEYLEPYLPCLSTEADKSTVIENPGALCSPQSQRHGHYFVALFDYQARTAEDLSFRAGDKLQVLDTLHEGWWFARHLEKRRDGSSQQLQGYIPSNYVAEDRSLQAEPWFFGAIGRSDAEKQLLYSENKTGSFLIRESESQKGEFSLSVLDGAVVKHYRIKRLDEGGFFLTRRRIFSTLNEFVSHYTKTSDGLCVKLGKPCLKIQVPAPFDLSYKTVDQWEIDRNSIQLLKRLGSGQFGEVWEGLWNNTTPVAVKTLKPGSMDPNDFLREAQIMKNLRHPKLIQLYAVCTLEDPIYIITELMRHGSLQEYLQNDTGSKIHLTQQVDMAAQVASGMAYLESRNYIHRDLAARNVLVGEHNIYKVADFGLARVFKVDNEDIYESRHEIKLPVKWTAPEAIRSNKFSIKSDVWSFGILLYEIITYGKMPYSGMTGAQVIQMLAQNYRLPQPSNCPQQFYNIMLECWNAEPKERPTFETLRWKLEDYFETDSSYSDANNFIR

IGF1R = IGF1R (Homo sapiens, UniProt P08069); experiment: SelectScreen kinase profiling, ZLYTE; assay type: biochemical
IKBKB (IKK beta) = IKBKB (IKK beta) (Homo sapiens, UniProt O14920); experiment: SelectScreen kinase profiling, ZLYTE; assay type: biochemical
LRRK2 = LRRK2 (Homo sapiens, UniProt Q5S007); experiment: SelectScreen kinase profiling, Adapta; assay type: biochemical; conditions: LRRK2, 10 µM
LYN A = LYN A (Homo sapiens, UniProt P07948); experiment: SelectScreen kinase profiling, ZLYTE; assay type: biochemical
LYN A, sequence (P07948 whole entry): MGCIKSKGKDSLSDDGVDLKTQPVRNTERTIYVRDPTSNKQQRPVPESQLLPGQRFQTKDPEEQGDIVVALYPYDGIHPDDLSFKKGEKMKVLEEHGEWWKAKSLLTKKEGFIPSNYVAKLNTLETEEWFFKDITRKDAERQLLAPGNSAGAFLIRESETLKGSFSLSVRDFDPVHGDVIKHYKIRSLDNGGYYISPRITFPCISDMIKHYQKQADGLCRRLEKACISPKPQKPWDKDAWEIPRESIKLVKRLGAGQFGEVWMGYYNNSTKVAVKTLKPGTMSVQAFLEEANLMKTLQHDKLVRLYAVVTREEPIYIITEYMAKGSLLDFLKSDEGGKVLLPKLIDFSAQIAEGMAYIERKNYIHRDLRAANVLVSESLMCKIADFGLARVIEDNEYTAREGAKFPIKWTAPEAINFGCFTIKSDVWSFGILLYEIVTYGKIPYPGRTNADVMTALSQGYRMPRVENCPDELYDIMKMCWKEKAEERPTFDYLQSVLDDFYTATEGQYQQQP

LYN B = LYN B (Homo sapiens, UniProt P07948); experiment: SelectScreen kinase profiling, ZLYTE; assay type: biochemical
MAP2K1 (MEK1) = MAP2K1 (MEK1) (Homo sapiens, UniProt Q02750); experiment: SelectScreen kinase profiling, ZLYTE; assay type: biochemical
MAP2K1 (MEK1), sequence (Q02750 whole entry): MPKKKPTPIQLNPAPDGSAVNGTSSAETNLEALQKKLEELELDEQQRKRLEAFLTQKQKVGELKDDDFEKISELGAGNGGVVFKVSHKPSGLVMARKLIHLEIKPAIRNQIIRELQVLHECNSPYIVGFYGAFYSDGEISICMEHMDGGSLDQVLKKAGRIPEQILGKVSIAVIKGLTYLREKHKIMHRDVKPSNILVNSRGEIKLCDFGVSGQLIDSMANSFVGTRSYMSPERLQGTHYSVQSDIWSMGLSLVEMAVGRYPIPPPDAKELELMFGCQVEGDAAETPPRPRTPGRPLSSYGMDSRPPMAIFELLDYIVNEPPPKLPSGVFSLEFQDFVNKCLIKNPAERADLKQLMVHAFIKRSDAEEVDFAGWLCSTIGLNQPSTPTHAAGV

MAP2K4 (MEK4) = MAP2K4 (MEK4) (Homo sapiens, UniProt P45985); experiment: SelectScreen kinase profiling, LanthaScreen binding
MAP2K6 (MKK6) = MAP2K6 (MKK6) (Homo sapiens, UniProt P52564); experiment: SelectScreen kinase profiling, ZLYTE; assay type: biochemical
MAP3K8 (COT) = MAP3K8 (COT) (Homo sapiens, UniProt P41279); experiment: SelectScreen kinase profiling, ZLYTE; assay type: biochemical
MAP3K8 (COT), sequence (P41279 whole entry): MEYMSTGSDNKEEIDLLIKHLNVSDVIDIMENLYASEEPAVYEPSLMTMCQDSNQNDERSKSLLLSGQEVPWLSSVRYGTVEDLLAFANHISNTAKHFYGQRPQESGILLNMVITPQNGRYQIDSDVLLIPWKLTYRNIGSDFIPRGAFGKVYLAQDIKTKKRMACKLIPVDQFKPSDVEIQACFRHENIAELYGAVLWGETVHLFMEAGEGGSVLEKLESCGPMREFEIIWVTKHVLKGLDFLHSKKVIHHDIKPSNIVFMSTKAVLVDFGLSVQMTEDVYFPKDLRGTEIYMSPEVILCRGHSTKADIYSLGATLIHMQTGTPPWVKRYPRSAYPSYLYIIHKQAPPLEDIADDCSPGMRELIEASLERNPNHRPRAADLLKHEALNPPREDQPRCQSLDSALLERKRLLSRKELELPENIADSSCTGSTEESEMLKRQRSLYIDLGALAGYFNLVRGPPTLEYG

MAP4K2 (GCK) = MAP4K2 (GCK) (Homo sapiens, UniProt Q12851); experiment: SelectScreen kinase profiling, ZLYTE; assay type: biochemical
MAPK13 (p38 delta) = MAPK13 (p38 delta) (Homo sapiens, UniProt O15264); experiment: SelectScreen kinase profiling, ZLYTE; assay type: biochemical
MAPK13 (p38 delta), sequence (O15264 whole entry): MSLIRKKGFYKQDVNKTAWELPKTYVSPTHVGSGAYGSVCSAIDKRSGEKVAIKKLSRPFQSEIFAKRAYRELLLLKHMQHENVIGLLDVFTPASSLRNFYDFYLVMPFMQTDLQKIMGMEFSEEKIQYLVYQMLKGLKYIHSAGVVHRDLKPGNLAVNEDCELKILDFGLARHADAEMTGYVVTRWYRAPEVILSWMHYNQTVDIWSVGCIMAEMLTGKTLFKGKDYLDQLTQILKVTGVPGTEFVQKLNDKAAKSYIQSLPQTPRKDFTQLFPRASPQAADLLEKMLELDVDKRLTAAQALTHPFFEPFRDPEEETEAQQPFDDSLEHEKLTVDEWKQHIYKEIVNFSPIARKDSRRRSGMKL

MAPK14 (p38 alpha) = MAPK14 (p38 alpha) (Homo sapiens, UniProt Q16539); experiment: SelectScreen kinase profiling, ZLYTE; assay type: biochemical
[1] = molecular target: MAPK14 (p38 alpha) Direct (Homo sapiens, UniProt Q16539); experiment: SelectScreen kinase profiling, ZLYTE; assay type: biochemical
MET D1228H = MET D1228H (Homo sapiens, UniProt P08581, D1228H); experiment: SelectScreen kinase profiling, LanthaScreen binding
MET M1250T = MET M1250T (Homo sapiens, UniProt P08581, M1250T); experiment: SelectScreen kinase profiling, ZLYTE; assay type: biochemical
MKNK1 (MNK1) = MKNK1 (MNK1) (Homo sapiens, UniProt Q9BUB5); experiment: SelectScreen kinase profiling, ZLYTE; assay type: biochemical
MKNK1 (MNK1), sequence (Q9BUB5 whole entry): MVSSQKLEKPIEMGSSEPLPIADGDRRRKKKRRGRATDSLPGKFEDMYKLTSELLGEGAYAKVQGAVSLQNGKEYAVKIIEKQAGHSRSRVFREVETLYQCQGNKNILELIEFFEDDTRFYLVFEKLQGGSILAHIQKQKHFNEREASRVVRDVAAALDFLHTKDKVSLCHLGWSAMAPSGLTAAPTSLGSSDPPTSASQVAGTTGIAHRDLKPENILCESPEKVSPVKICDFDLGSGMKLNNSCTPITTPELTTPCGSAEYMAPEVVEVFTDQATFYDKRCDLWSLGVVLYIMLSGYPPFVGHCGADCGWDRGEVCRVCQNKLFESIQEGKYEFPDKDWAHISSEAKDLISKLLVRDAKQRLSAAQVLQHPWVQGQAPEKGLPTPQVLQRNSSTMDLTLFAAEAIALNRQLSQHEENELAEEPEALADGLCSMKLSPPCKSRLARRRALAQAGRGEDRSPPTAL

NLK = NLK (Homo sapiens, UniProt Q9UBE8); experiment: SelectScreen kinase profiling, LanthaScreen binding
NUAK2 = NUAK2 (Homo sapiens, UniProt Q9H093); experiment: as above; conditions: NUAK2, 10 µM
PAK6 = PAK6 (Homo sapiens, UniProt Q9NQU5); experiment: SelectScreen kinase profiling, ZLYTE; assay type: biochemical; conditions: PAK6, 10 µM
PI4K2A (PI4K2 alpha) = PI4K2A (PI4K2 alpha) (Homo sapiens, UniProt Q9BTU6); experiment: SelectScreen kinase profiling, Adapta; assay type: biochemical
PRKCB1 (PKC beta I) = PRKCB1 (PKC beta I) (Homo sapiens, UniProt P05771); experiment: SelectScreen kinase profiling, ZLYTE; assay type: biochemical
PTK2B (FAK2) = PTK2B (FAK2) (Homo sapiens, UniProt Q14289); experiment: SelectScreen kinase profiling, ZLYTE; assay type: biochemical
RET Y791F = RET Y791F (Homo sapiens, UniProt P07949, Y791F); experiment: SelectScreen kinase profiling, ZLYTE; assay type: biochemical
SGKL (SGK3) = SGKL (SGK3) (Homo sapiens, UniProt Q96BR1); experiment: SelectScreen kinase profiling, ZLYTE; assay type: biochemical
STK17A (DRAK1) = STK17A (DRAK1) (Homo sapiens, UniProt Q9UEE5); experiment: SelectScreen kinase profiling, LanthaScreen binding
YES1 = YES1 (Homo sapiens, UniProt P07947); experiment: SelectScreen kinase profiling, ZLYTE; assay type: biochemical; conditions: YES1, 10 µM
hERG channel [2] = molecular target: T1, hERG channel (Homo sapiens, UniProt Q12809); experiment: biochemical
T1 sequence (Q12809 whole entry): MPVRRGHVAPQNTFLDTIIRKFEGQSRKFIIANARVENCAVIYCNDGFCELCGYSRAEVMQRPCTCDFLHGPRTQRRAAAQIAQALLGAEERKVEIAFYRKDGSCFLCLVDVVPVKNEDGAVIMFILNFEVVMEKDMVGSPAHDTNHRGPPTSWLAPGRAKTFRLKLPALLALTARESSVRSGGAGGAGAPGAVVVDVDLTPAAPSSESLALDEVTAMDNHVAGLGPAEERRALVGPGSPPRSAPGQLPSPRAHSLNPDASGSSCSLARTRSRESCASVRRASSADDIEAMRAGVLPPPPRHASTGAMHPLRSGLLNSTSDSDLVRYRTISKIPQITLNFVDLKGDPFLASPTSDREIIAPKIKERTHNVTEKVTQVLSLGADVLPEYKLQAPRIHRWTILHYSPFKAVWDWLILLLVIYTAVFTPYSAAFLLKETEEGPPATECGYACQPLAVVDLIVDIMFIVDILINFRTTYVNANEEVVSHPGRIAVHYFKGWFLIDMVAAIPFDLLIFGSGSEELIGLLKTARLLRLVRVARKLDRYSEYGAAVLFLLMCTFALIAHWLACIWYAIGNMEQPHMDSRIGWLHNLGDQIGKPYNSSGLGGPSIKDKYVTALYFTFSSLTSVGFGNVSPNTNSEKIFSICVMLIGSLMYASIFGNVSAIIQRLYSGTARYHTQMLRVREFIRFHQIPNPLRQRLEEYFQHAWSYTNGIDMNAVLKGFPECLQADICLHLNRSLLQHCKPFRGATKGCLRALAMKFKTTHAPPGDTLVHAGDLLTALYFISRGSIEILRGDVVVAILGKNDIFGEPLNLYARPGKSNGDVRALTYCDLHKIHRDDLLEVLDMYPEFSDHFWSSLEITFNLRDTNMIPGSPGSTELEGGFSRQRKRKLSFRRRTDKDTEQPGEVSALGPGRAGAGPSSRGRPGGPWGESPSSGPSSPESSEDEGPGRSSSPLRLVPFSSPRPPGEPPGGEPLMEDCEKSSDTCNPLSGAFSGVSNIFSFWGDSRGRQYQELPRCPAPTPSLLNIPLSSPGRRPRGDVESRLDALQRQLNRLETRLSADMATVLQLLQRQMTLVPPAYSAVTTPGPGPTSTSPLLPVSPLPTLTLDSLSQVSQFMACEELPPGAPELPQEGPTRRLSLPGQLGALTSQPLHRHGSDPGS

hERG channel [3] = molecular target: T1, hERG channel; experiment: Predictor hERG fluorescence polarization assay; conditions: 10000nM

**Q.** Which results are given for O=C(c1ccc(/C=C/c2n[nH]c3ccccc23)cc1)N1CCNCC1 [KW-2449]?
**A.** inhibition at 10 µM (ALK T1151_L1152insT): 26%; inhibition at 10 µM (AURKA (Aurora A)): 98%; inhibition at 10 µM (AURKB (Aurora B)): 102%; inhibition at 10 µM (AURKC (Aurora C)): 98%; inhibition at 10 µM (CAMKK1 (CAMKKA)): 69%; inhibition at 10 µM (CDK7/cyclin H/MNAT1): 98%; inhibition at 10 µM (EPHA3): 61%; inhibition at 10 µM (EPHA5): 84%; inhibition at 10 µM (EPHB2): 95%; inhibition at 10 µM (FGFR2): 97%; inhibition at 10 µM (FGFR3): 97%; inhibition at 10 µM (FRK (PTK5)): 90%; inhibition at 10 µM (IGF1R): 95%; inhibition at 10 µM (IKBKB (IKK beta)): 66%; inhibition at 10 µM (LRRK2): 100%; inhibition at 10 µM (LYN A): 89%; inhibition at 10 µM (LYN B): 94%; inhibition at 10 µM (MAP2K1 (MEK1)): 72%; inhibition at 10 µM (MAP2K4 (MEK4)): 79%; inhibition at 10 µM (MAP2K6 (MKK6)): 79%; inhibition at 10 µM (MAP3K8 (COT)): 54%; inhibition at 10 µM (MAP4K2 (GCK)): 101%; inhibition at 10 µM (MAPK13 (p38 delta)): 30%; inhibition at 10 µM (MAPK14 (p38 alpha)): 33%; inhibition at 10 µM [1]: 44%; inhibition at 10 µM (MET D1228H): 75%; inhibition at 10 µM (MET M1250T): 96%; inhibition at 10 µM (MKNK1 (MNK1)): 52%; inhibition at 10 µM (NLK): -2%; inhibition at 10 µM (NUAK2): 62%; inhibition at 10 µM (PAK6): 60%; inhibition at 10 µM (PI4K2A (PI4K2 alpha)): 4%; inhibition at 10 µM (PRKCB1 (PKC beta I)): 19%; inhibition at 10 µM (PTK2B (FAK2)): 96%; inhibition at 10 µM (RET Y791F): 100%; inhibition at 10 µM (SGKL (SGK3)): 52%; inhibition at 10 µM (STK17A (DRAK1)): 85%; inhibition at 10 µM (YES1): 95%; IC50 (hERG channel [2]): > 10 µM; hERG % Inhibition (hERG channel [3]): 19%
